Test results from ChEMBL document CHEMBL1933046, “Synthesis and antibacterial activity of a novel series of acylides active against community acquired respiratory pathogens” (2012).
≈ marks a conversion by molar mass, not a printed value. Calls of active or inactive are those of the source. The rule behind the calls is not given here.

Key:
Streptococcus pneumoniae [1] = assay: Antibacterial activity against telethromycin-resistant Streptococcus pneumoniae 757 expressing erm gene by NCCLS method; assay type: functional
Streptococcus pneumoniae [2] = assay: Antibacterial activity against telethromycin-resistant Streptococcus pneumoniae 2840 expressing erm gene by NCCLS method; assay type: functional
Streptococcus pneumoniae [3] = assay: Antibacterial activity against Streptococcus pneumoniae 6303 by NCCLS method; assay type: functional
Streptococcus pneumoniae [4] = assay: Antibacterial activity against Streptococcus pneumoniae 3579 expressing erm gene infected in mouse systemic infection model; assay type: functional, organism-based
Streptococcus pneumoniae [5] = assay: Antibacterial activity against telethromycin-resistant Streptococcus pneumoniae 3271 expressing erm gene by NCCLS method; assay type: functional
Streptococcus pneumoniae [6] = assay: Antibacterial activity against telethromycin-resistant Streptococcus pneumoniae AB14 expressing erm gene by NCCLS method; assay type: functional
Streptococcus pneumoniae [7] = assay: Antibacterial activity against telethromycin-resistant Streptococcus pneumoniae 3489 expressing erm gene by NCCLS method; assay type: functional
Streptococcus pneumoniae [8] = assay: Antibacterial activity against telethromycin-resistant Streptococcus pneumoniae 5051 expressing erm gene by NCCLS method; assay type: functional
Streptococcus pneumoniae [9] = assay: Antibacterial activity against Streptococcus pneumoniae 994 expressing mef gene by NCCLS method; assay type: functional
Streptococcus pneumoniae [10] = assay: Antibacterial activity against telethromycin-resistant Streptococcus pneumoniae 3488 expressing erm gene by NCCLS method; assay type: functional
Streptococcus pneumoniae [11] = assay: Antibacterial activity against Streptococcus pneumoniae 3579 expressing erm gene by NCCLS method; assay type: functional
Streptococcus pneumoniae [12] = assay: Antibacterial activity against telethromycin-resistant Streptococcus pneumoniae B739 expressing erm gene by NCCLS method; assay type: functional
Moraxella catarrhalis = assay: Antibacterial activity against Moraxella catarrhalis 8176 by NCCLS method; assay type: functional
Haemophilus influenzae = assay: Antibacterial activity against Haemophilus influenzae 38 by NCCLS method; assay type: functional
Streptococcus pyogenes = assay: Antibacterial activity against Streptococcus pyogenes 19615 by NCCLS method; assay type: functional
Streptococcus pneumoniae [13] = assay: Antibacterial activity against telethromycin-resistant Streptococcus pneumoniae 5099 expressing erm gene by NCCLS method; assay type: functional
Streptococcus pneumoniae [14] = assay: Antibacterial activity against Streptococcus pneumoniae 49619 by NCCLS method; assay type: functional
Streptococcus pneumoniae [15] = assay: Antibacterial activity against telethromycin-resistant Streptococcus pneumoniae 3390 expressing erm gene by NCCLS method; assay type: functional
Streptococcus pneumoniae [16] = assay: Antibacterial activity against telethromycin-resistant Streptococcus pneumoniae 217 expressing erm gene by NCCLS method; assay type: functional
Streptococcus pneumoniae [17] = assay: Antibacterial activity against telethromycin-resistant Streptococcus pneumoniae 162 expressing erm gene by NCCLS method; assay type: functional

Structure (SMILES) | MIC (Streptococcus pneumoniae [1]) | MIC (Streptococcus pneumoniae [2]) | MIC (Streptococcus pneumoniae [3]) | Activity (Streptococcus pneumoniae [4]) | MIC (Streptococcus pneumoniae [5]) | MIC (Streptococcus pneumoniae [6]) | MIC (Streptococcus pneumoniae [7]) | MIC (Streptococcus pneumoniae [8]) | MIC (Streptococcus pneumoniae [9]) | MIC (Streptococcus pneumoniae [10]) | MIC (Streptococcus pneumoniae [11]) | MIC (Streptococcus pneumoniae [12]) | MIC (Moraxella catarrhalis) | MIC (Haemophilus influenzae) | MIC (Streptococcus pyogenes) | MIC (Streptococcus pneumoniae [13]) | MIC (Streptococcus pneumoniae [14]) | MIC (Streptococcus pneumoniae [15]) | MIC (Streptococcus pneumoniae [16]) | MIC (Streptococcus pneumoniae [17])
C=CCN(C)[C@H]1C[C@@H](C)O[C@@H](O[C@@H]2[C@@H](C)[C@H](OC(=O)Cc3ccccn3)[C@@H](C)C(=O)O[C@H](CC)[C@@]3(C)OC(=O)N(CCCCn4cnc5ncccc54)[C@@H]3[C@@H](C)C(=O)[C@H](C)C[C@@]2(C)OC)[C@@H]1O | 0.25 µg/mL (≈ 0.268 µM) | 0.5 µg/mL (≈ 0.536 µM) | 0.06 µg/mL (≈ 0.0643 µM) | Active | 0.5 µg/mL (≈ 0.536 µM) | 0.06 µg/mL (≈ 0.0643 µM) | 0.5 µg/mL (≈ 0.536 µM) | 0.125 µg/mL (≈ 0.134 µM) | 0.5 µg/mL (≈ 0.536 µM) | 0.125 µg/mL (≈ 0.134 µM) | 0.5 µg/mL (≈ 0.536 µM) | 0.5 µg/mL (≈ 0.536 µM) | 0.25 µg/mL (≈ 0.268 µM) | < 0.06 µg/mL | 0.06 µg/mL (≈ 0.0643 µM) | 0.06 µg/mL (≈ 0.0643 µM) | 0.06 µg/mL (≈ 0.0643 µM) | 0.125 µg/mL (≈ 0.134 µM) | 0.125 µg/mL (≈ 0.134 µM) | 1 µg/mL (≈ 1.07 µM)
C=CCN(C)[C@H]1C[C@@H](C)O[C@@H](O[C@@H]2[C@@H](C)[C@H](OC(=O)Cc3ccccn3)[C@@H](C)C(=O)O[C@H](CC)[C@@]3(C)OC(=O)N(CCCCn4ccc5cccnc54)[C@@H]3[C@@H](C)C(=O)[C@H](C)C[C@@]2(C)OC)[C@@H]1O | 1 µg/mL (≈ 1.07 µM) | 2 µg/mL (≈ 2.15 µM) | 0.03 µg/mL (≈ 0.0322 µM) | Active | 4 µg/mL (≈ 4.29 µM) | 0.25 µg/mL (≈ 0.268 µM) | 2 µg/mL (≈ 2.15 µM) | 0.5 µg/mL (≈ 0.536 µM) | 0.25 µg/mL (≈ 0.268 µM) | 0.5 µg/mL (≈ 0.536 µM) | 1 µg/mL (≈ 1.07 µM) | 2 µg/mL (≈ 2.15 µM) | 0.25 µg/mL (≈ 0.268 µM) | < 0.06 µg/mL | 0.03 µg/mL (≈ 0.0322 µM) | 0.25 µg/mL (≈ 0.268 µM) | 0.03 µg/mL (≈ 0.0322 µM) | 0.25 µg/mL (≈ 0.268 µM) | 1 µg/mL (≈ 1.07 µM) | 4 µg/mL (≈ 4.29 µM)
